{"source": "patent US20230033285A1", "about": "“Protease Inhibitors for Treatment of Coronavirus Infections” (The Scripps Research Institute, priority 2021, published 2023)"}
{"system": "SARS-CoV-2", "test": "microbe, parasite or virus in culture", "assay_type": "cell-based", "conditions": "Severe acute respiratory syndrome coronavirus 2, HeLa-ACE2, 24 h, read-out: EC50, μM (Hela)", "units": {"EC50": "µM"}}
{"smiles": "CC(C)C[C@H](NC(=O)C(=O)NC1CCCCC1)C(=O)N[C@@H](C[C@@H]1CCNC1=O)C(=O)CO", "note": "[Compound 14, N^1-cyclohexyl-N^2-((S)-1-(((S)-4-hydroxy-3-oxo-1-((S)-2-oxopyrrolidin-3-yl)butan-2-yl)amino)-4-methyl-1-oxopentan-2-yl)oxalamide]", "EC50": "> 1"}
{"system": "SARS-CoV-2", "test": "microbe, parasite or virus in culture", "assay_type": "cell-based", "conditions": "Severe acute respiratory syndrome coronavirus 2; HeLa-ACE2 cells infected with SARS-CoV-2, 24 h, immunofluorescence of infected cells; read-out: EC50, μM (Hela)", "units": {"EC50": "µM"}}
{"smiles": "COc1cccc2[nH]c(C(=O)N[C@@H](CC(C)C)C(=O)N[C@@H](C[C@@H]3CCNC3=O)C(=O)CO)cc12", "note": "[Compound 1, N-((S)-1-(((S)-4-hydroxy-3-oxo-1-((S)-2-oxopyrrolidin-3-yl)butan-2-yl)amino)-4-methyl-1-oxopentan-2-yl)-4-methoxy-1H-indole-2-carboxamide]", "EC50": "0.2 to 0.5"}
{"smiles": "CC(C)C[C@H](NC(=O)C(=O)Nc1ccccc1)C(=O)N[C@@H](C[C@@H]1CCNC1=O)C(=O)CO", "note": "[Compound 2, N^1-((S)-1-(((S)-4-hydroxy-3-oxo-1-((S)-2-oxopyrrolidin-3-yl)butan-2-yl)amino)-4-methyl-1-oxopentan-2-yl)-N^2-phenyloxalamide]", "EC50": "> 1"}
{"smiles": "CCCCCCCCCCCCCCC(=O)OCC(=O)[C@H](C[C@@H]1CCNC1=O)NC(=O)[C@H](CC(C)C)NC(=O)C(=O)Nc1ccccc1F", "note": "[Compound 4, (S)-3-((S)-2-(2-((2-fluorophenyl)amino)-2-oxoacetamido)-4-methylpentanamido)-2-oxo-4-((S)-2-oxopyrrolidin-3-yl)butyl pentadecanoate]", "EC50": "0.2 to 0.5"}
{"smiles": "CC(C)C[C@H](NC(=O)C(=O)Nc1ccccc1F)C(=O)N[C@@H](C[C@@H]1CCNC1=O)C(=O)COC(=O)C1CCC(N2CCCCC2)CC1", "note": "(stereo partly drawn) [Compound 5, (S)-3-((S)-2-(2-((2-fluorophenyl)amino)-2-oxoacetamido)-4-methylpentanamido)-2-oxo-4-((S)-2-oxopyrrolidin-3-yl)butyl 4-(piperidin-1-yl)cyclohexane-1-carboxylate]", "EC50": "0.2 to 0.5"}
{"smiles": "CC(C)C[C@H](NC(=O)C(=O)Nc1ccccc1F)C(=O)N[C@@H](C[C@@H]1CCNC1=O)C(=O)COC(=O)C1CCN(C2CCCCC2)CC1", "note": "[Compound 6, (S)-3-((S)-2-(2-((2-fluorophenyl)amino)-2-oxoacetamido)-4-methylpentanamido)-2-oxo-4-((S)-2-oxopyrrolidin-3-yl)butyl 1-cyclohexylpiperidine-4-carboxylate]", "EC50": "0.05 to 0.2"}
{"smiles": "COc1ccccc1NC(=O)C(=O)N[C@@H](CC(C)C)C(=O)N[C@@H](C[C@@H]1CCNC1=O)C(=O)CO", "note": "[Compound 7]", "EC50": "> 1"}
{"smiles": "Cc1ccccc1NC(=O)C(=O)N[C@@H](CC1CCCCC1)C(=O)N[C@@H](C[C@@H]1CCNC1=O)C(=O)CO", "note": "[Compound 8, N^1-((S)-3-cyclohexyl-1-(((S)-4-hydroxy-3-oxo-1-((S)-2-oxopyrrolidin-3-yl)butan-2-yl)amino)-1-oxopropan-2-yl)-N^2-(o-tolyl)oxalamide]", "EC50": "0.2 to 0.5"}
{"smiles": "COc1cccc(NC(=O)C(=O)N[C@@H](CC(C)C)C(=O)N[C@@H](C[C@@H]2CCNC2=O)C(=O)CO)c1", "note": "[Compound 9]", "EC50": "0.05 to 0.2"}
{"smiles": "CC(C)C[C@H](NC(=O)Nc1ccccc1F)C(=O)N[C@@H](C[C@@H]1CCNC1=O)C(=O)CO", "note": "[Compound 10, (S)-2-(3-(2-fluorophenyl)ureido)-N-((S)-4-hydroxy-3-oxo-1-((S)-2-oxopyrrolidin-3-yl)butan-2-yl)-4-methylpentanamide]", "EC50": "> 1"}
{"smiles": "Cc1cccc(C)c1NC(=O)C(=O)N[C@@H](CC(C)C)C(=O)N[C@@H](C[C@@H]1CCNC1=O)C(=O)COC(=O)C(=O)c1ccccc1", "note": "[Compound 11, (S)-3-((S)-2-(2-((2,6-dimethylphenyl)amino)-2-oxoacetamido)-4-methylpentanamido)-2-oxo-4-((S)-2-oxopyrrolidin-3-yl)butyl 2-oxo-2-phenylacetate]", "EC50": "0.05 to 0.2"}
{"smiles": "Cc1cccc(C)c1NC(=O)C(=O)N[C@@H](CC(C)C)C(=O)N[C@@H](C[C@@H]1CCNC1=O)C(=O)CO", "note": "[Compound 12, N^1-(2,6-dimethylphenyl)-N^2-((S)-1-(((S)-4-hydroxy-3-oxo-1-((S)-2-oxopyrrolidin-3-yl)butan-2-yl)amino)-4-methyl-1-oxopentan-2-yl)oxalamide]", "EC50": "> 1"}
{"smiles": "Cc1cccc(C)c1NC(=O)C(=O)N[C@@H](CC(C)C)C(=O)NC(C[C@@H]1CCNC1=O)C(=O)CO", "note": "(stereo partly drawn) [Compound 13, N^1-(2,6-dimethylphenyl)-N^2-((2S)-1-((4-hydroxy-3-oxo-1-((S)-2-oxopyrrolidin-3-yl)butan-2-yl)amino)-4-methyl-1-oxopentan-2-yl)oxalamide]", "EC50": "0.2 to 0.5"}
{"smiles": "COc1cccc(OC)c1NC(=O)C(=O)N[C@@H](CC(C)C)C(=O)N[C@@H](C[C@@H]1CCNC1=O)C(=O)CO", "note": "[Compound 15, N^1-(2,6-dimethoxyphenyl)-N^2-((S)-1-(((S)-4-hydroxy-3-oxo-1-((S)-2-oxopyrrolidin-3-yl)butan-2-yl)amino)-4-methyl-1-oxopentan-2-yl)oxalamide]", "EC50": "> 1"}
{"smiles": "COc1cccc(C)c1NC(=O)C(=O)N[C@@H](CC(C)C)C(=O)N[C@@H](C[C@@H]1CCNC1=O)C(=O)CO", "note": "[Compound 16, N^1-((S)-1-(((S)-4-hydroxy-3-oxo-1-((S)-2-oxopyrrolidin-3-yl)butan-2-yl)amino)-4-methyl-1-oxopentan-2-yl)-N^2-(2-methoxy-6-methylphenyl)oxalamide]", "EC50": "0.2 to 0.5"}
{"smiles": "CCc1cccc(CC)c1NC(=O)C(=O)N[C@@H](CC(C)C)C(=O)N[C@@H](C[C@@H]1CCNC1=O)C(=O)CO", "note": "[Compound 17, N^1-(2,6-diethylphenyl)-N^2-((S)-1-(((S)-4-hydroxy-3-oxo-1-((S)-2-oxopyrrolidin-3-yl)butan-2-yl)amino)-4-methyl-1-oxopentan-2-yl)oxalamide]", "EC50": "< 0.05"}
{"smiles": "CCCCCCC(=O)OCC(=O)[C@H](C[C@@H]1CCNC1=O)NC(=O)[C@H](CC(C)C)NC(=O)C(=O)NC1CCCCC1", "note": "[Compound 18, (S)-3-((S)-2-(2-(cyclohexylamino)-2-oxoacetamido)-4-methylpentanamido)-2-oxo-4-((S)-2-oxopyrrolidin-3-yl)butyl heptanoate]", "EC50": "0.05 to 0.2"}
{"smiles": "CCCCCCC(=O)OCC(=O)[C@H](C[C@@H]1CCNC1=O)NC(=O)[C@H](CC1CCCCC1)NC(=O)C(=O)NC1CCCCC1", "note": "[Compound 19, (S)-3-((S)-3-cyclohexyl-2-(2-(cyclohexylamino)-2-oxoacetamido)propanamido)-2-oxo-4-((S)-2-oxopyrrolidin-3-yl)butyl heptanoate]", "EC50": "0.2 to 0.5"}
{"smiles": "Cc1ccccc1NC(=O)C(=O)N[C@@H](Cc1ccccc1F)C(=O)N[C@@H](C[C@@H]1CCNC1=O)C(=O)CO", "note": "[Compound 20, N^1-((S)-3-(2-fluorophenyl)-1-(((S)-4-hydroxy-3-oxo-1-((S)-2-oxopyrrolidin-3-yl)butan-2-yl)amino)-1-oxopropan-2-yl)-N^2-(o-tolyl)oxalamide]", "EC50": "> 1"}
{"smiles": "CC(C)C[C@H](NC(=O)C(=O)Nc1ccccc1F)C(=O)N[C@@H](C[C@@H]1CCCNC1=O)C(=O)CO", "note": "[Compound 21, N^1-(2-fluorophenyl)-N^2-((S)-1-(((S)-4-hydroxy-3-oxo-1-((S)-2-oxopiperidin-3-yl)butan-2-yl)amino)-4-methyl-1-oxopentan-2-yl)oxalamide]", "EC50": "0.05 to 0.2"}
{"smiles": "CC(C)(C)C[C@H](NC(=O)C(=O)NC12CC(F)(C1)C2)C(=O)N[C@@H](C[C@@H]1CCNC1=O)C(=O)CO", "note": "[Compound 22, N^1-(3-fluorobicyclo[1.1.1]pentan-1-yl)-N^2-((S)-1-(((S)-4-hydroxy-3-oxo-1-((S)-2-oxopyrrolidin-3-yl)butan-2-yl)amino)-4,4-dimethyl-1-oxopentan-2-yl)oxalamide]", "EC50": "0.2 to 0.5"}
{"smiles": "Cc1ccc(C2(NC(=O)C(=O)N[C@@H](CC(C)C)C(=O)N[C@@H](C[C@@H]3CCNC3=O)C(=O)CO)CC2)cc1", "note": "[Compound 23]", "EC50": "0.5 to 1"}
{"smiles": "O=C(Nc1ccccc1F)C(=O)N[C@@H](CC1CCCCC1)C(=O)N[C@@H](C[C@@H]1CCCNC1=O)C(=O)CO", "note": "[Compound 24, N^1-((S)-3-cyclohexyl-1-(((S)-4-hydroxy-3-oxo-1-((S)-2-oxopiperidin-3-yl)butan-2-yl)amino)-1-oxopropan-2-yl)-N^2-(2-fluorophenyl)oxalamide]", "EC50": "0.05 to 0.2"}
{"smiles": "O=C(Nc1ccccc1F)C(=O)N[C@@H](CC1CCCCC1)C(=O)N[C@H](C[C@@H]1CCCNC1=O)C(=O)CO", "note": "[Compound 25, N^1-((S)-3-cyclohexyl-1-(((R)-4-hydroxy-3-oxo-1-((S)-2-oxopiperidin-3-yl)butan-2-yl)amino)-1-oxopropan-2-yl)-N^2-(2-fluorophenyl)oxalamide]", "EC50": "0.05 to 0.2"}
{"smiles": "CC(C)C[C@H](NC(=O)C(=O)NCC(F)(F)F)C(=O)N[C@@H](C[C@@H]1CCNC1=O)C(=O)CO", "note": "[Compound 26]", "EC50": "> 1"}
{"smiles": "Cc1ccccc1NC(=O)C(=O)N[C@@H](CC(C)C)C(=O)N[C@@H](C[C@@H]1CCCNC1=O)C(=O)CO", "note": "[Compound 27, N^1-((S)-1-(((S)-4-hydroxy-3-oxo-1-((S)-2-oxopiperidin-3-yl)butan-2-yl)amino)-4-methyl-1-oxopentan-2-yl)-N^2-(o-tolyl)oxalamide]", "EC50": "0.05 to 0.2"}
{"smiles": "CCc1cccc(CC)c1NC(=O)C(=O)N[C@@H](CC(C)C)C(=O)N[C@@H](C[C@@H]1CCCNC1=O)C(=O)CO", "note": "[Compound 28, N^1-(2,6-diethylphenyl)-N^2-((S)-1-(((S)-4-hydroxy-3-oxo-1-((S)-2-oxopiperidin-3-yl)butan-2-yl)amino)-4-methyl-1-oxopentan-2-yl)oxalamide]", "EC50": "< 0.05"}
{"smiles": "CC(C)C[C@H](NC(=O)C(=O)NC1(C)CC1)C(=O)N[C@@H](C[C@@H]1CCCNC1=O)C(=O)CO", "note": "[Compound 29, N^1-((S)-1-(((S)-4-hydroxy-3-oxo-1-((S)-2-oxopiperidin-3-yl)butan-2-yl)amino)-4-methyl-1-oxopentan-2-yl)-N^2-(1-methylcyclopropyl)oxalamide]", "EC50": "> 1"}
{"smiles": "O=C(Nc1ccccc1F)C(=O)N1C[C@@H]2CCC[C@@H]2[C@H]1C(=O)N[C@@H](C[C@@H]1CCNC1=O)C(=O)CO", "note": "[Compound 30, (1S,3aR,6aS)-2-(2-((2-fluorophenyl)amino)-2-oxoacetyl)-N-((S)-4-hydroxy-3-oxo-1-((S)-2-oxopyrrolidin-3-yl)butan-2-yl)octahydrocyclopenta[c]pyrrole-1-carboxamide]", "EC50": "0.05 to 0.2"}
